Test results: US7250441B2, “Carbazole and cyclopentaindole derivatives to treat infection with Hepatitis C virus” (priority 2004, dated 2007)

Target: T1, HCV RdRp NS5B d21BK (NS5B from the BK strain, genotype 1b) (Hepatitis C virus genotype 1b, UniProt P26663)
T1 construct: NS5B from the BK strain (genotype 1b) is expressed in E coli as a protein in which the 21 C-terminal amino acids are replaced; made in house; host or cells: E. coli
Test: Hepatitis C polymerase inhibition assay, radioactive nucleotide incorporation with filter capture
Type: biochemical
Source text: The ability of the compounds of formula (I) to inhibit Hepatitis C Polymerase was established by the following experimental procedure.
NS5B from the BK strain (genotype 1b) is expressed in E coli as a protein in which the 21 C-terminal amino acids are replaced with a short linker and a hexahistidine tag ([…]). The purified protein is mixed with radioactive nucleotides and allowed to replicate a heteropolymeric RNA substrate, primed by an endogenous short hairpin, resulting in an approximately 760 nt product. The radioactive product is captured on a filter and quantitated after removal of the unincorporated nucleotides.
(1) Compounds 10 μl at 10 μg/ml in 15% dimethylsulfoxide (DMSO)
When starting from 100 μg/ml compound stock in 1% DMSO, 5 μl 30% DMSO is dispensed per well. Next, 5 μl compound (100 μg/ml) is dispensed per well.
When starting from 50 μg/ml compound stock in 15% DMSO, 10 μl compound is added per well.
20 μl enzyme mix is added into each well of the assay plate. The compound and enzyme are incubated at room temperature for 15 minutes.
(3) Template mix (prepared in advance)
A tube of RNA (5 μg/tube stored in 75% ethanol and 0.3 M sodium acetate) is microcentrifuged for 20 minutes at 4° C. (one tube supplies 1-1.5 plates). Ethanol is removed from the tube by gently inverting the tube. The RNA is vacuum dried and re-suspended in 1 ml of DEPC water in a tightly capped tube. To dissolve RNA, the RNA solution is incubated on ice for ˜60 minutes and gently vortexed. It is spun briefly to ensure all RNA solution at the bottom of the tube before opening cap. The RNA solution is then gently transferred into a 5 ml or larger tube. Another 3 ml of DEPC water is added to obtain a total of 4 ml of volume.
The following volumes of reagents are added:
20 μl template mix per reaction is added (i.e. 20 ng of pOF per reaction or ˜3 nM)
(4) The reaction is incubated at room temperature (22-25° C.) for 2 hours.
(5) The reaction is quenched by adding 50 μl of 170 mM EDTA.
Final concentration of EDTA is 85 mM.
(6) The filters of Millipore multiscreen assay plate is pre-wet by adding 200 μl of 0.5 M sodium phosphate buffer, pH 7.0 into each well. This stands at room temperature for 2-3 minutes.
(7) The multiscreen filter plate is placed onto a Millipore Manifold under vacuum to allow buffer to flow through. After the vacuum is turned off, 80 μl of the reaction product is transferred into each well of the filter plate. This stands for 2-3 minutes prior to turning on the vacuum again to filter the reaction product.
(8) The vacuum is then removed. 200 μl of 0.5 M sodium phosphate buffer is added, pH 7.0, into each well. The vacuum is then turned on.
Step (8) is repeated three more times.
(9) Next the polypropylene bottom is removed, and the filter is spot dried with a paper towel. The filter plate is air-dried on a bench for 1 hour before adding 40 μl Super Mix scintillant. The top of the plate is sealed with a tape and the plate is placed into a Packard carrier or micro-beta carrier.
(10) The plate is counted using a Packard Topcount or micro-beta counter. Count (for example using Program 10) for ^33P in Top count or ^33P program in micro-beta.
The percent inhibition is calculated after background subtraction as a percent reduction of activity relative to the positive control (average value of the plate excluding the negative controls). For the primary screen hits were chosen as showing >75% inhibition.
See, Ferrari et al. 1999. J. Virology 73:1649-1654: “Characterization of soluble Hepatitis C virus RNA-dependent RNA polymerase expressed in E. coli and Takamizawa et al 1991” and J. Virology 65:1105-1113: “Structure and characterization of Hepatitis C virus genome isolated from human carriers,” both reference are hereby incorporated by reference.

T1 sequence (P26663 2420-2989): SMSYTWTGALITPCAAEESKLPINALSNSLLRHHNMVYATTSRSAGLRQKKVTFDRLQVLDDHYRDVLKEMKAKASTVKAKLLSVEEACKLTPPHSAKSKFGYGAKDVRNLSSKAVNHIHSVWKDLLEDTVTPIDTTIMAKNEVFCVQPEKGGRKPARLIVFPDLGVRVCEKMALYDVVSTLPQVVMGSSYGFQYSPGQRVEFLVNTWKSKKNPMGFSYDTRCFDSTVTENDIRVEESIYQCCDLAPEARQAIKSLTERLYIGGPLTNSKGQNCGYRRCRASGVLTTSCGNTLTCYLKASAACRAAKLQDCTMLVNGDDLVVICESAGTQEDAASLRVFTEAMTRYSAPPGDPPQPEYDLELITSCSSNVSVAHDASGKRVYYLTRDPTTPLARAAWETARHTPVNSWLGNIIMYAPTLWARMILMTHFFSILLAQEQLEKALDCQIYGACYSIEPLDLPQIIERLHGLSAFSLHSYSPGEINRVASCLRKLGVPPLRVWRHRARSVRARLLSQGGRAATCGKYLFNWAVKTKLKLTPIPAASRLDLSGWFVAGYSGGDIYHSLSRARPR

Row | SMILES | IC50 [µM]
1 | CCCC1(C(=O)O)CCCc2c1[nH]c1c(F)ccc(C#N)c21 (centres unmarked) [Example 25, 5-Cyano-8-fluoro-1-propyl-2,3,4,9-tetrahydro-1H-carbazole-1-carboxylic acid] | 10
2 | CCCC1(CC(=O)O)CCCc2c1[nH]c1c(F)ccc(C#N)c21 (centres unmarked) [Example 32, (5-Cyano-8-fluoro-1-propyl-2,3,4,9-tetrahydro-1H-carbazol-1-yl)-acetic acid] | 2
3 | C=CCC1(C(=O)O)CCc2c1[nH]c1c(F)ccc(Br)c21 (centres unmarked) [Example 9, 3-Allyl-8-bromo-5-fluoro-1,2,3,4-tetrahydro-cyclopenta[b]indole-3-carboxylic acid] | 6.4
4 | C=CCC1(C(=O)O)CCc2c1[nH]c1c(C)ccc(C#N)c21 (centres unmarked) [Example 18, 3-Allyl-8-cyano-5-methyl-1,2,3,4-tetrahydro-cyclopenta[b]indole-3-carboxylic acid] | 11
5 | CCCC1(CC(=O)O)CCCc2c1[nH]c1c(C(N)=O)ccc(C#N)c21 (centres unmarked) [Example 33, (8-Carbamoyl-5-cyano-1-propyl-2,3,4,9-tetrahydro-1H-carbazol-1-yl)-acetic acid] | 5.9
6 | C=CCC1(C(=O)O)CCc2c1[nH]c1c(C)cc(F)c(C#N)c21 (centres unmarked) [Example 19, 3-Allyl-8-cyano-7-fluoro-5-methyl-1,2,3,4-tetrahydro-cyclopenta[b]indole-3-carboxylic acid] | 6.3
7 | C=CCC1(CC(=O)O)CCCc2c1[nH]c1c(C#N)ccc(C#N)c21 (centres unmarked) [Example 34, (1-Allyl-5,8-dicyano-2,3,4,9-tetrahydro-1H-carbazol-1-yl)-acetic acid] | 3.4
8 | CCCC1(C(=O)O)CCc2c1[nH]c1c(C)ccc(Br)c21 (centres unmarked) [Example 11, 8-Bromo-5-methyl-3-propyl-1,2,3,4-tetrahydro-cyclopenta[b]indole-3-carboxylic acid] | 1.9
9 | CCCCC1(C(=O)O)CCc2c1[nH]c1c(F)ccc(C#N)c21 (centres unmarked) [Example 16, 3-Butyl-8-cyano-5-fluoro-1,2,3,4-tetrahydro-cyclopenta[b]indole-3-carboxylic acid] | 5.4
10 | CCCCC1(C(=O)O)CCc2c1[nH]c1c(C)cc(F)cc21 (centres unmarked) [Example 7, 3-Butyl-7-fluoro-5-methyl-1,2,3,4-tetrahydro-cyclopenta[b]indole-3-carboxylic acid] | 9.1
11 | C=CCC1(C(=O)O)CCc2c1[nH]c1c(C)ccc(Br)c21 (centres unmarked) [Example 8, 3-Allyl-8-bromo-5-methyl-1,2,3,4-tetrahydro-cyclopenta[b]indole-3-carboxylic acid] | 5.7
12 | C=CCC1(C(=O)O)CCc2c1[nH]c1c(Cl)ccc(Cl)c21 (centres unmarked) [Example 1, 3-Allyl-5,8-dichloro-1,2,3,4-tetrahydro-cyclopenta[b]indole-3-carboxylic acid] | 1.2
13 | CCCC1(C(=O)O)CCc2c1[nH]c1c(C)cc(F)c(Br)c21 (centres unmarked) [Example 13, 8-Bromo-7-fluoro-5-methyl-3-propyl-1,2,3,4-tetrahydro-cyclopenta[b]indole-3-carboxylic acid] | 2
14 | CCCCC1(C(=O)O)CCc2c1[nH]c1c(C)cc(F)c(Br)c21 (centres unmarked) [Example 6, 8-Bromo-3-butyl-7-fluoro-5-methyl-1,2,3,4-tetrahydro-cyclopenta[b]indole-3-carboxylic acid] | 2.1
15 | CCCCC1(C(=O)O)CCc2c1[nH]c1c(C)cc(F)c(C#N)c21 (centres unmarked) [Example 17, 3-Butyl-8-cyano-7-fluoro-5-methyl-1,2,3,4-tetrahydro-cyclopenta[b]indole-3-carboxylic acid] | 1.5
16 | C=CCC1(CC(=O)O)CCCc2c1[nH]c1c(F)ccc(C#N)c21 (centres unmarked) [Example 31, (1-Allyl-5-cyano-8-fluoro-2,3,4,9-tetrahydro-1H-carbazol-1-yl)-acetic acid] | 0.37

Row | SMILES | IC50 [µM]
17 | C=CCC1(CC(=O)O)CCCc2c1[nH]c1c(F)ccc(F)c21 (centres unmarked) [Example 29, (1-Allyl-5,8-difluoro-2,3,4,9-tetrahydro-1H-carbazol-1-yl)-acetic acid] | 32
18 | CCCCC1(C(=O)O)CCc2c1[nH]c1c(Cl)ccc(Cl)c21 (centres unmarked) [Example 2, 3-Butyl-5,8-dichloro-1,2,3,4-tetrahydro-cyclopenta[b]indole-3-carboxylic acid] | 1.9
19 | CCCC1(C(=O)O)CCc2c1[nH]c1c(C)cc(F)c(C#N)c21 (centres unmarked) [Example 22, 8-Cyano-7-fluoro-5-methyl-3-propyl-1,2,3,4-tetrahydro-cyclopenta[b]indole-3-carboxylic acid] | 1.8
20 | CCCC1(C(=O)O)CCc2c1[nH]c1c(C)ccc(C#N)c21 (centres unmarked) [Example 20, 8-Cyano-5-methyl-3-propyl-1,2,3,4-tetrahydro-cyclopenta[b]indole-3-carboxylic acid] | 4.7
21 | CCCCC1(C(=O)O)CCc2c1[nH]c1c(C)ccc(Br)c21 (centres unmarked) [Example 4, 8-Bromo-3-butyl-5-methyl-1,2,3,4-tetrahydro-cyclopenta[b]indole-3-carboxylic acid] | 6.7
22 | CCCC1(CC(=O)O)CCCc2c1[nH]c1cccc(C#N)c21 (centres unmarked) [Example 36, (5-Cyano-1-propyl-2,3,4,9-tetrahydro-1H-carbazol-1-yl)-acetic acid] | 9.5
23 | N#Cc1ccc(F)c2[nH]c3c(c12)CCCC3(CC1CCC1)C(=O)O (centres unmarked) [Example 26, 5-Cyano-1-cyclobutylmethyl-8-fluoro-2,3,4,9-tetrahydro-1H-carbazole-1-carboxylic acid] | 16
24 | CCCC1(C(=O)O)CCc2c1[nH]c1c(F)ccc(Br)c21 (centres unmarked) [Example 12, 8-Bromo-5-fluoro-3-propyl-1,2,3,4-tetrahydro-cyclopenta[b]indole-3-carboxylic acid] | 2.9
25 | CCCC1(C(=O)O)CCCc2c1[nH]c1c(Cl)ccc(C(F)(F)F)c21 (centres unmarked) [Example 27, 8-Chloro-1-propyl-5-trifluoromethyl-2,3,4,9-tetrahydro-1H-carbazole-1-carboxylic acid] | 5.8
26 | C=CCC1(C(=O)O)CCc2c1[nH]c1c(C)cc(F)c(Br)c21 (centres unmarked) [Example 10, 3-Allyl-8-bromo-7-fluoro-5-methyl-1,2,3,4-tetrahydro-cyclopenta[b]indole-3-carboxylic acid] | 3.2
27 | CCCC1(C(=O)O)CCCc2c1[nH]c1c(Cl)ccc(Cl)c21 (centres unmarked) [Example 24, 5,8-Dichloro-1-propyl-2,3,4,9-tetrahydro-1H-carbazole-1-carboxylic acid] | 3.2
28 | CCCC1(CC(=O)O)CCCc2c1[nH]c1c(C#N)ccc(C#N)c21 (centres unmarked) [Example 35, (5,8-Dicyano-1-propyl-2,3,4,9-tetrahydro-1H-carbazol-1-yl)-acetic acid] | 3.4
29 | CCCCC1(C(=O)O)CCc2c1[nH]c1c(F)ccc(Br)c21 (centres unmarked) [Example 5, 8-Bromo-3-butyl-5-fluoro-1,2,3,4-tetrahydro-cyclopenta[b]indole-3-carboxylic acid] | 5.8
30 | CCCC1(C(=O)O)CCc2c1[nH]c1c(Cl)ccc(Cl)c21 (centres unmarked) [Example 3, 5,8-Dichloro-3-propyl-1,2,3,4-tetrahydro-cyclopenta[b]indole-3-carboxylic acid] | 0.55
31 | CCC1(C(=O)O)CCCc2c1[nH]c1c(Cl)ccc(Cl)c21 (centres unmarked) [Example 23, 5,8-Dichloro-1-ethyl-2,3,4,9-tetrahydro-1H-carbazole-1-carboxylic acid] | 9.7
32 | CCCC1(C(=O)O)CCCc2c1[nH]c1c(C)ccc(C#N)c21 (centres unmarked) [Example 28, 5-Cyano-8-methyl-1-propyl-2,3,4,9-tetrahydro-1H-carbazole-1-carboxylic acid] | 15
